Consider three compounds from patent US5798373A, “Tri-substituted phenyl derivatives useful as PDE IV inhibitors” (Celltech Therapeutics, Limited, priority 1995, dated 1998).

Data set [1] concerns rat hepatocytes. As to the kind of experiment: Rat hepatocyte metabolism (metabolic stability). It counts as in vitro ADME. As to conditions: after 3 h. On the procedure: (§1) 2. Rat Hepatocyte Metabolism
(§2) The quantity of compound remaining after a fixed period of time was then determined using mass spectroscopy.
(§3) Thus in one such test the compound of Example 1 was compared with a related compound particularly described in International Patent Specification No. WO94/14742 in which the 4-fluorobenzylurea group is replaced by a hydrogen atom (i.e. (L^1)n Ar' above is a hydrogen atom). After 3 h the percentage of each compound remaining was: […]

Data set [2] is described as follows: Rat hepatocyte metabolism (metabolic stability). It counts as in vitro ADME. As to conditions: rat hepatocytes, after 3 h, mass spectroscopy; read-out: percentage of compound remaining. The procedure:
as §1, §2, §3

The target in data set [3] is T1, Recombinant Human PDE IVA (Homo sapiens, UniProt P27815).
T1 construct: made in house; host or cells: yeast (inducible vector)
T1 sequence (P27815 whole entry): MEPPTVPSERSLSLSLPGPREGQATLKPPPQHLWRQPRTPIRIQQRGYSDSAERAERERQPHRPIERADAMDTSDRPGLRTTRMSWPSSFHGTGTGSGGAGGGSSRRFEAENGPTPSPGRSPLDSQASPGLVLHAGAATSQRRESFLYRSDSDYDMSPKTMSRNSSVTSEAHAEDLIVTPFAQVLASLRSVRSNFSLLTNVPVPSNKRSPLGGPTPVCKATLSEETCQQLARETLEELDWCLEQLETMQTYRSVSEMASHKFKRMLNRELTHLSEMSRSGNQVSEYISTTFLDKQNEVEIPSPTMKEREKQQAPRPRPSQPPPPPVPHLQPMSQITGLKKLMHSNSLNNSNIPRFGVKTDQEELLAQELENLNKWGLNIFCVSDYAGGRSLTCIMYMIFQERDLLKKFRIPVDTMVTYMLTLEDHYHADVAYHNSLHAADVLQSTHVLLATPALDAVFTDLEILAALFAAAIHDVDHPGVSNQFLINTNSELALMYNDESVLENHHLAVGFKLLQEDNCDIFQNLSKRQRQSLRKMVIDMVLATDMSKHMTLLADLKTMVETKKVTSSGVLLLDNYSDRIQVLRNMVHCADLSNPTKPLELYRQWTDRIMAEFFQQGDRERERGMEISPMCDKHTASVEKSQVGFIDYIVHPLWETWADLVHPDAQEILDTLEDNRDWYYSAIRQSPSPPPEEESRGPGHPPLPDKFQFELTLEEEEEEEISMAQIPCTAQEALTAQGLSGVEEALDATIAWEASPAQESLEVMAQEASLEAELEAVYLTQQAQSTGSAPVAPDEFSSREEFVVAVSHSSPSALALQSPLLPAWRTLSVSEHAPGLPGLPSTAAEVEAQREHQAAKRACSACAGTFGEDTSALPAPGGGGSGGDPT
As to the kind of experiment: Isolated recombinant human PDE IVA enzyme inhibition. It counts as biochemical. As to conditions: 0.1 μM [^3 H]-cAMP, pH 7.5, 30° C.
Experimental: Isolated Recombinant Human PDE IVA Enzyme
The enzymes were purified to isoenzyme homogeneity using standard chromatographic techniques.
Phosphodiesterase activity was assayed as follows. The reaction was conducted in 150 μl of standard mixture containing (final concentrations): 50 mM 2-[[tris(hydroxymethyl)methyl]amino]-1-ethanesulphonic acid (TES) --NaOH buffer (pH 7.5), 10 mM MgCl2, 0.1 μM [^3 H]-cAMP and vehicle or various concentrations of the test compounds. The reaction was initiated by addition of enzyme and conducted at 30° C. for between 5 to 30 min. The reaction was terminated by addition of 50 μl 2% trifluoroacetic acid containing [^14 C]-5'AMP for determining recovery of the product. An aliquot of the sample was then applied to a column of neutral alumina and the [^3 H]-cAMP eluted with 10 ml 0.1 TES-NaOH buffer (pH8). The [^3 H]-5'-AMP product was eluted with 2 ml 2M NaOH into a scintillation vial containing 10 ml of scintillation cocktail. Recovery of [^3 H]-5'AMP was determined using the [^14 C]-5'AMP and all assays were conducted in the linear range of the reaction. Results were expressed as IC50 values.

Where a name gives a salt, the structure may show the parent alone.

As for `COc1ccc([C@H](Cc2ccncc2)c2ccccc2)cc1OC1CCCC1` [WO94/14732 comparison compound, reference compound], in data set [1], the “extent of metabolism (in words)” value is reported as “extensively metabolised”. Also, the amount remaining (as a rule, the share of the starting amount still present when the sample was taken) at 3 h in data set [2] worked out at 6%.
In the case of `COc1ccc([C@H](Cc2ccncc2)c2ccc(NC(=O)NCc3ccc(F)cc3)cc2)cc1OC1CCCC1` [Example 1, (R)-N-[4-{1-(3-cyclopentyloxy-4-methoxyphenyl)-2-(4-pyridyl)ethyl}-phenyl]-N'-(4-fluorobenzyl) urea], the IC50 (usually the point on the concentration scale where inhibition reaches its midpoint) in data set [3] worked out at 23 nM. In addition, the “percentage of compound remaining” value in data set [1] (mass spectroscopy, listed as compound of the invention, 180 min) is “over 80%”. Further, in data set [2], the fraction remaining at 3 h was > 80%.
As for `COc1ccc([C@H](Cc2ccncc2)c2ccc(NS(=O)(=O)Cc3ccccc3)cc2)cc1OC1CCCC1` [Example 2, (R)-4-{2-(3-cyclopentyloxy-4-methoxyphenyl)-2-[4-(benzylsulphonylamino)phenyl]ethyl}pyridine hydrochloride], the IC50 in data set [3] came out at 7.5 nM.
